Paper PMC6711467 (Drug delivery and translational research, 2018)
Values joined by “and” are separate entries in the source; they are usually repeats but may differ in a detail not shown here. Equal values may be shown once. Read-outs that look alike come from different tables or passages of the source. Marks after values point to notes of the source that are not given here.

Legend:
[1] = Rectal PK study: IQB4012 gel; assay type: in vivo, pigtailed macaques; details: for median drug concentration (min-max), Rectal fluids / median drug concentration (min-max), Rectal tissues: N = 6; for levels in blood plasma: below the LLOQ, data not shown; for concentration at 2 h / concentration at 4 h / concentration at 24 h: female, pigtailed macaque, other: rectal
[2] = Release of drug from the gel into a liquid sink; assay type: in vitro ADME; details: IQB4012 gel, 1% (w/w) of each drug
[3] = in vivo
[4] = Vaginal PK study: IQB4012 gel; details: for concentration at 2 h / concentration at 4 h / concentration at 24 h: female, pigtailed macaque, other: vaginal
[5] = rectal gel application, 1 or 4 ml
[6] = vaginal fluid, distal, 1.5 ml gel
[7] = vaginal fluid, proximal, 0.5 ml
[8] = vaginal fluid, proximal, 1.5 ml gel
[9] = vaginal tissue, distal, 1.5 ml gel
[10] = vaginal tissue, medial, 1.5 ml gel
[11] = vaginal tissue, proximal, 0.5 ml
[12] = vaginal application, below the LLOQ, data not shown

Cc1cc(C)cc(C(=O)c2c(C(C)C)c(=O)[nH]c(=O)n2CC2CC2)c1 [IQP-0528]
median concentrations in rectal fluids ([1]; 1 ml gel rectally, 2 to 24 h): 10^3–10^5 ng/ml | median drug concentration (min-max), Rectal fluids ([1]; 1 ml gel rectally, 2 h): 93,375 (2480–420,500) ng/ml | median drug concentration (min-max), Rectal fluids ([1]; 1 ml gel rectally, 4 h): 31,000 (545–873,500) ng/ml | median drug concentration (min-max), Rectal tissues ([1]; 1 ml gel rectally, 4 h): 9087 (BLLOQ^2-15,150) ng/g | median drug concentration (min-max), Rectal fluids ([1]; 1 ml gel rectally, 24 h): 2975 (815–22,900) ng/ml | median drug concentration (min-max), Rectal tissues ([1]; 1 ml gel rectally, 24 h): 127 ^* ng/g | median drug concentration (min-max), Rectal fluids ([1]; 4 ml gel rectally, 2 h): 106,500 (54,600–769,000) ng/ml | median drug concentration (min-max), Rectal fluids ([1]; 4 ml gel rectally, 4 h): 53,775 (9570–930,500) ng/ml | median drug concentration (min-max), Rectal tissues ([1]; 4 ml gel rectally, 4 h): 1277 (BLLOQ-51,304) ng/g | median drug concentration (min-max), Rectal fluids ([1]; 4 ml gel rectally, 24 h): 7065 (608–43,750) ng/ml | median drug concentration (min-max), Rectal tissues ([1]; 4 ml gel rectally, 24 h): 566 (BLLOQ-2228) ng/g | levels in blood plasma ([1]; rectal application): < 10 ng/mL | rectal tissue samples with detectable concentrations ([1]; rectal application, both gel volumes (1 and 4 ml)): 10^2–10^3 ng/g | concentrations sampled in rectal tissues [1, 5]: 10^1–10^3 ng/g | release from the gel into a liquid sink (Franz Cell) [2]: 53.93 μg/cm ^3h | levels in rectal tissue biopsies [3]: below LLOQ | plasma concentrations [3]: < 10 ng/mL

C[C@H](Cn1cnc2c(N)ncnc21)OCP(=O)(O)O [TFV, tenofovir]
median drug concentration (min—max), Vaginal fluids, Proximal ([4]; 0.5 ml gel vaginally, 2 h, N = 6): 158,146 (BLLOQ^2-3,025,157) ng/ml | concentration at 2 h ([4]; rectal fluid, 0.5 ml): 80 ng/mL | concentration at 4 h ([4]; rectal fluid, 0.5 ml): 69 ng/mL | concentration at 24 h ([4]; rectal fluid, 0.5 ml): 53 ng/mL | concentration at 2 h ([4]; rectal fluids, 1.5 ml gel): 138 ng/mL | concentration at 4 h ([4]; rectal fluids, 1.5 ml gel): 156 ng/mL | concentration at 24 h ([4]; rectal fluids, 1.5 ml gel): 127 ng/mL | concentration at 2 h ([4]; vaginal fluid, distal, 0.5 ml): 232000 ng/mL | concentration at 4 h ([4]; vaginal fluid, distal, 0.5 ml): 132000 ng/mL | concentration at 24 h ([4]; vaginal fluid, distal, 0.5 ml): 18700 ng/mL | concentration at 2 h ([4]; vaginal fluid, distal, 1.5 ml): 37200 ng/mL | concentration at 4 h [4, 6]: 153000 ng/mL | concentration at 24 h [4, 6]: 57000 ng/mL | concentration at 4 h [4, 7]: 124000 ng/mL | concentration at 24 h [4, 7]: 48900 ng/mL | concentration at 2 h ([4]; vaginal fluid, proximal, 1.5 ml): 30400 ng/mL | concentration at 4 h [4, 8]: 54300 ng/mL | concentration at 24 h [4, 8]: 18000 ng/mL | concentration at 4 h ([4]; vaginal tissue, distal, 0.5 ml): 13400 ng/g | concentration at 24 h ([4]; vaginal tissue, distal, 0.5 ml): 5910 ng/g | concentration at 4 h [4, 9]: 19200 ng/g | concentration at 24 h [4, 9]: 5380 ng/g | concentration at 4 h ([4]; vaginal tissue, medial, 0.5 ml): 8860 ng/g | concentration at 24 h ([4]; vaginal tissue, medial, 0.5 ml): 3550 ng/g | concentration at 4 h [4, 10]: 10200 ng/g | concentration at 24 h [4, 10]: 12200 ng/g | concentration at 4 h [4, 11]: 4490 ng/g | concentration at 24 h [4, 11]: 16900 ng/g | concentration at 4 h ([4]; vaginal tissue, proximal, 1.5 ml gel): 35100 ng/g | median concentrations in rectal fluids ([4]; vaginal application of either volume (0.5 or 1.5 ml), over 24 h): ≤ 200 ng/mL | concentrations in rectal biopsy tissues [4, 12]: < 1 ng/sample | plasma concentrations [4, 12]: < 10 ng/mL | median drug concentration (min-max), Rectal tissues ([1]; 1 ml gel rectally, 24 h): 659 (BLLOQ-3586) ng/g | median drug concentration (min-max), Rectal tissues ([1]; 4 ml gel rectally, 4 h): 393 (BLLOQ-11,464) ng/g | concentration at 2 h ([1]; rectal fluid, 1 ml): 3230 ng/mL | concentration at 4 h ([1]; rectal fluid, 1 ml): 705 ng/mL | concentration at 24 h ([1]; rectal fluid, 1 ml): 132 ng/mL | concentration at 2 h ([1]; rectal fluid, 4 ml): 5060 ng/mL | concentration at 4 h ([1]; rectal fluid, 4 ml): 864 ng/mL | concentration at 24 h ([1]; rectal fluid, 4 ml): 277 ng/mL | concentration at 4 h ([1]; rectal tissue, 1 ml): 811 ng/g | concentration at 24 h ([1]; rectal tissue, 1 ml): 659 ng/g | concentration at 4 h ([1]; rectal tissue, 4 ml): 393 ng/g | concentration at 24 h ([1]; rectal tissue, 4 ml): 1410 ng/g | concentration at 2 h ([1]; pigtailed, rectal fluid, 1 ml): 3230 ng/mL | concentration at 4 h ([1]; pigtailed, rectal fluid, 1 ml): 705 ng/mL | concentration at 24 h ([1]; pigtailed, rectal fluid, 1 ml): 132 ng/mL | concentration at 2 h ([1]; pigtailed, rectal fluid, 4 ml): 5060 ng/mL | concentration at 4 h ([1]; pigtailed, rectal fluid, 4 ml): 864 ng/mL | concentration at 24 h ([1]; pigtailed, rectal fluid, 4 ml): 277 ng/mL | concentration at 4 h ([1]; pigtailed, rectal tissue, 1 ml): 811 ng/g | concentration at 24 h ([1]; pigtailed, rectal tissue, 4 ml): 1410 ng/g | levels in blood plasma ([1]; rectal application): < 10 ng/mL | concentrations sampled in rectal tissues [1, 5]: 10^1–10^3 ng/g | median concentrations in rectal fluids [1, 5]: 10^2–10^3 ng/ml | release from the gel into a liquid sink (Franz Cell) [2]: 82.51 μg/cm ^3h

C[C@@H](Cn1cnc2c(N)ncnc21)OCP(=O)(O)OP(=O)(O)OP(=O)(O)O [TFV-DP, TFV-diphosphate]
median drug concentration (min-max), Rectal tissues ([1]; 1 ml gel rectally, 4 h): 176 ng/g and 176 (BLLOQ-207) ng/g | median drug concentration (min-max), Rectal tissues ([1]; 1 ml gel rectally, 24 h): 70 ng/g and 70 (BLLOQ-128) ng/g | median drug concentration (min-max), Rectal tissues ([1]; 4 ml gel rectally, 4 h): 47 ng/g and 47 (BLLOQ-480) ng/g | median drug concentration (min-max), Rectal tissues ([1]; 4 ml gel rectally, 24 h): 81 ng/g and 81 (BLLOQ-131) ng/g
